Reference: US9169254B2, “Spiroimidazolone derivative” (Chugai Seiyaku Kabushiki Kaisha, priority 2009, dated 2015)
Like-named read-outs stand apart in the source and are kept apart here.

T1: human PTH1 receptor (Homo sapiens, UniProt Q03431)
T1 sequence (Q03431 27-593): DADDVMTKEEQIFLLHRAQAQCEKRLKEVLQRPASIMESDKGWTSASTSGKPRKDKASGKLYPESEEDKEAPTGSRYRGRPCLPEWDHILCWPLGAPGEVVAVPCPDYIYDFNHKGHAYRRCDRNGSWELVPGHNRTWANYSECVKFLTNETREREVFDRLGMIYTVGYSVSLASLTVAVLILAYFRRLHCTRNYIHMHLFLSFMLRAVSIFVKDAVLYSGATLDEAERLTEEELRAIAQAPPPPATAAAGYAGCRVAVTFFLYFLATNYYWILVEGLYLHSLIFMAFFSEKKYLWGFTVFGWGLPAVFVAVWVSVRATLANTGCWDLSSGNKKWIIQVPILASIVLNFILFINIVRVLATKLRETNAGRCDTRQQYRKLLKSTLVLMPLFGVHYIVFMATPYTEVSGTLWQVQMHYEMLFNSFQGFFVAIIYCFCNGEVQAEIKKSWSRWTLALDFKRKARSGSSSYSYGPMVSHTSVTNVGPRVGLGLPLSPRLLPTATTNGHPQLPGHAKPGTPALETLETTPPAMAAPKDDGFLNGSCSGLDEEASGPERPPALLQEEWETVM


Assays:
[1] = subcutaneous administration, cited from earlier work
[2] = subcutaneous administration, cited from earlier work; remark: listed apart in the source
human PTH1 receptor = target: T1, human PTH1 receptor; experiment: In vitro cAMP signal activity in HKRK-B7 cells (LLC-PK1 cells overexpressing the human PTH1 receptor); type: cell-based; conditions: HKRK-B7 cells; compound at 1×10^−3 M; cAMP produced as percentage of that produced by hPTH(1-34) at 100 nM

| Molecule | cAMP production activity (%) (human PTH1 receptor) | also measured |
| --- | --- | --- |
| CC[C@H](C)[C@H](NC(=O)[C@H](CCC(=O)O)NC(=O)[C@H](CO)NC(=O)[C@@H](NC(=O)[C@@H](N)CO)C(C)C)C(=O)N[C@@H](CCC(N)=O)C(=O)N[C@@H](CC(C)C)C(=O)N[C@@H](CCSC)C(=O)N[C@@H](Cc1cnc[nH]1)C(=O)N[C@@H](CC(N)=O)C(=O)N[C@@H](CC(C)C)C(=O)NCC(=O)N[C@@H](CCCCN)C(=O)N[C@@H](Cc1cnc[nH]1)C(=O)N[C@@H](CC(C)C)C(=O)N[C@@H](CC(N)=O)C(=O)N[C@@H](CO)C(=O)N[C@@H](CCSC)C(=O)N[C@@H](CCC(=O)O)C(=O)N[C@@H](CCCN=C(N)N)C(=O)N[C@H](C(=O)N[C@@H](CCC(=O)O)C(=O)N[C@@H](Cc1c[nH]c2ccccc12)C(=O)N[C@@H](CC(C)C)C(=O)N[C@@H](CCCN=C(N)N)C(=O)N[C@@H](CCCCN)C(=O)N[C@@H](CCCCN)C(=O)N[C@@H](CC(C)C)C(=O)N[C@@H](CCC(N)=O)C(=O)N[C@@H](CC(=O)O)C(=O)N[C@H](C(=O)N[C@@H](Cc1cnc[nH]1)C(=O)N[C@@H](CC(N)=O)C(=O)N[C@@H](Cc1ccccc1)C(=O)O)C(C)C)C(C)C [human PTH(1-34), teriparatide] | – | increase of the spine bone mineral density (BMD) ([1]; in one year): 8%; decrease of the risk of nonvertebral fracture ([2]; in two years): 55%; decrease of the risk of vertebral fracture ([2]; in two years): 65% |
| CC(=O)Nc1ccc(CCS(=O)(=O)N2CCC3(CC2)N=C(Nc2ccc(C(F)(F)F)cc2)NC3=O)c(C)c1 [Compound 1401, N-(3-Methyl-4-{2-[4-oxo-2-(4-trifluoromethyl-phenylamino)-1,3,8-triaza-spiro[4.5]dec-1-ene-8-sulfonyl]-ethyl}-phenyl)-acetamide] | 73 | – |
| Cc1cc2ccc1CCS(=O)(=O)N1CCC3(CC1)N=C(NC3=O)c1cc(cc(C(F)(F)F)c1)OCCC=CCCCN(C)C2=O [Compound 1406] | 7.3 | – |
| Cc1cc(N2C(=O)CNC2=O)ccc1CCS(=O)(=O)N1CCC2(CC1)N=C(C1CCC(CCC(F)F)CC1)NC2=O (stereo not shown) [Compound 956, 3-[4-(2-{2-[4-(3,3-difluoro-propyl)-cyclohexyl]-4-oxo-1,3,8-triaza-spiro[4.5]dec-1-ene-8-sulfonyl}-ethyl)-3-methyl-phenyl]-imidazolidine-2,4-dione] | 87 | – |
| O=C1Cc2c(/C=C/S(=O)(=O)N3CCC4(CC3)N=C(C3CCCCC3)NC4=O)cccc2N1 [Compound 634, 2-cyclohexyl-8-[(E)-2-(2-oxo-2,3-dihydro-1H-indol-4-yl)-ethenesulfonyl]-1,3,8-triaza-spiro[4.5]dec-1-en-4-one] | 29 | – |
| Cc1cc(NCCO)ccc1CCS(=O)(=O)N1CCC2(CC1)N=C(c1cccc(OC(F)(F)F)c1)NC2=O [Compound 159, 8-{2-[4-(2-Hydroxy-ethylamino)-2-methyl-phenyl]-ethanesulfonyl}-2-(3-trifluoromethoxy-phenyl)-1,3,8-triaza-spiro[4.5]dec-1-en-4-one] | 96 | – |
| CCCCCC#CCCC1=NC2(CCN([S@TB17](=O)(=O)CCc3c(C)cc(N(C)C(N)=O)cc3C)CC2)C(=O)N1 [Compound 1082, 1-{3,5-dimethyl-4-[2-(2-non-3-ynyl-4-oxo-1,3,8-triaza-spiro[4.5]dec-1-ene-8-sulfonyl)-ethyl]-phenyl}-1-methyl-urea] | 22 | – |
| Cc1cccc(C2=NC3(CCN(S(=O)(=O)CCc4ccc(C(=O)N(C)C)cc4C)CC3)C(=O)N2)n1 [Compound 97, 3,N,N-trimethyl-4-{2-[2-(6-methyl-pyridin-2-yl)-4-oxo-1,3,8-triaza-spiro[4.5]dec-1-ene-8-sulfonyl]-ethyl}-benzamide] | 4.3 | – |
| Cc1cc2ccc1CCS(=O)(=O)N1CCC3(CC1)N=C(NC3=O)c1cc(cc(C(F)(F)F)c1)OCCCCCCCN(C)C2=O [Compound 1407] | 6.6 | – |
| human PTH(1-84): "Native human parathyroid hormone is a polypeptide consisting of 84 amino acids" (protein, UniProt P01270 32-115, looked up, Parathyroid hormone) Parathyroid hormone: SVSEIQLMHNLGKHLNSMERVEWLRKKLQDVHNFVALGAPLAPRDAGSQRPRKKEDNVLVESHEKSLGEADKADVNVLTKAKSQ | – | increase of the spine bone mineral density (BMD) ([1]; in 18 months): 6.9%; decrease of the risk of vertebral fracture ([2]; 18-month study): 58% |
